The nature of this series: Fluorescent studies (absorption and emission spectra) in DMSO. Type of series: physicochemical. The settings on record: concentration 1×10^−5 M; for maximum absorption wavelength (λabs) / maximum emission wavelength (λems): FIG. 1. The source says:
FIG. 1 represents absorption and emission spectra of (a) coumarin-UpyFlAA (6) and (b) hydroquinone-UPy-FlAA(10), in accordance with an implementation of the present disclosure.

Consider `CCN(CC)c1ccc2cc(-c3cc(=O)[nH]c(NC(=O)NCCCC[C@H](NC(=O)OC(C)(C)C)C(=O)O)n3)c(=O)oc2c1` [Compound 6, N2-(tert-butoxycarbonyl)-N6-((4-(7-(diethylamino)-2-oxo-2H-chromen-3-yl)-6-oxo-1,6-dihydropyrimidin-2-yl)carbamoyl)lysine], for which the “fluorescence (relative fluorescence intensity)” value is on record as “high level of fluorescence”, the “maximum absorption wavelength (λabs)” value came out at 437 nm and the “maximum emission wavelength (λems)” value is 487 nm.

In the case of `COc1ccc(OC)c(-c2cc(=O)nc(NC(=O)NCCCC[C@H](NC(=O)OC(C)(C)C)C(=O)O)[nH]2)c1` [Compound 10, N2-(tert-butoxycarbonyl)-N6-((6-(2,5-dimethoxyphenyl)-4-oxo-1,4-dihydropyrimidin-2-yl)carbamoyl)lysine], the “fluorescence (relative fluorescence intensity)” value is “high level of fluorescence”, the “maximum absorption wavelength (λabs)” value is given as 310 nm and the “maximum emission wavelength (λems)” value came to 421 nm.

Source of the values: patent US20260265230A1, “FLUORESCENT AND SELF-ASSEMBLING UREIDOPYRIMIDINONE CONJUGATES AND PREPARATION THEREOF” (COUNCIL OF SCIENTIFIC AND INDUSTRIAL RESEARCH AN INDIAN …, priority 2022, published 2026).
